# Measured values reported in US12545668B2, “Cyclic amine derivative as agent for promoting advillin function, and novel cyclic amine derivative and pharmaceutical use thereof” (Toray Industries, Inc., priority 2018, dated 2026).
# How the values were obtained:
# [1] = test system: F11 cells (rat dorsal root ganglion neuron cell line); assay: Effect of decreasing intracellular actin filaments in F11 cells with oxaliplatin-induced axonal injury (phalloidin staining); format: cell-based; conditions: F-11 rat/mouse fusion cell line, F11, 120 h, compound 10 μM with oxaliplatin 15 μM, 5 days; compared to oxaliplatin alone treated group; average of five samples; read-out: Decreasing Rate of Intracellular Actin Filament (%)
# From the text: The effect of the cyclic amine derivative (I) or a pharmacologically acceptable salt thereof on the amount of intracellular actin filaments in F11 cells (rat dorsal root ganglion neuron cell line) was examined.
# As test compounds, the compounds of Examples 1, 2, 3, 4, 5, 6, 7, 8, and 9 were used.
# As compounds of comparative examples, 1-(4-(dimethylamino)piperidin-1-yl)-3-(1-ethyl-1H-imidazol-2-yl)-3-hydroxypropan-1-one (hereinafter, the compound of Comparative Example 1), 1-(4-(dimethylamino)piperidin-1-yl)-3-hydroxy-3-(1-(2,2,2-trifluoroethyl)-1H-imidazol-2-yl)propan-1-one (hereinafter, the compound of Comparative Example 2), 1-((R)-3-(dimethylamino)pyrrolidin-1-yl)-3-hydroxy-3-(1-methyl-1H-imidazol-2-yl)propan-1-one (hereinafter, the compound of Comparative Example 3), and 1-((R)-[…]-3-hydroxy-3-(1-methyl-1H-imidazol-2-yl)propan-1-one (hereinafter, the compound of Comparative Example 4) shown in Table 4 were used. The compounds of Comparative Examples 1, 2, 3, and 4 were synthesized in accordance with methods described in International Publication No. WO2016/136944.
# For peeling the F11 cells off from a culture flask, 0.25% Trypsin/EDTA (manufactured by Thermo Fisher Scientific K.K.) was added to the cells, followed by incubation at room temperature for several minutes. Thereafter, 10% fetal bovine serum-containing DMEM medium (manufactured by Thermo Fisher Scientific K.K.) was added thereto for suspension, and the resultant centrifuged at 1,500 rpm for 1 minute. After removing the resultant centrifugal supernatant, 0.5% fetal bovine serum-containing DMEM medium was added thereto for suspending cells therein, and the resultant seeded in a poly-D-lysine-coated 96 well plate (manufactured by BD Biosciences) coated with laminin (2 μg/cm^2, manufactured by Sigma Aldrich) to be cultured at 37° C. under an environment of 5% CO2. Two hours after seeding the cells, N,N-dibutyladenosine 3′,5′-phosphate (final concentration 1 mM, manufactured by Sigma Aldrich) and recombinant rat GDNF (final concentration 50 ng/mL, manufactured by PeproTech) were added thereto to culture the cells at 37° C. under an environment of 5% CO2 for 7 days for differentiation.
# Seven days after starting the culture, the medium was exchanged with 0.5% fetal bovine serum-containing DMEM medium containing oxaliplatin (final concentration 15 μM), and the resultant cultured for 5 days to induce axonal injury. Each of the compounds of Examples and Comparative Examples was caused to be contained in the medium (final concentration 10 μM) for treatment in the same manner as oxaliplatin.
# Five days after treatment with oxaliplatin and each of the compounds, the resultant cells were washed with PBS(−) three times, a 4% paraformaldehyde-phosphate buffer (manufactured by Wako Pure Chemical Industries Ltd.) was added thereto, and the resultant allowed to stand still at room temperature for 10 minutes to fix the cells. Acti-stain 670 phalloidin (manufactured by Cytoskeleton Inc.) was added thereto, and the resultant incubated at room temperature for 30 minutes to stain actin filaments. An image of the cells was acquired using IN Cell Analyzer 2200 (manufactured by GE Healthcare), and the image analyzed using IN Cell Investigator Developer Toolbox. The amount of intracellular actin filaments was indicated by the amount of fluorescence (density) of fluorescent-labeled phalloidin binding to the actin filaments.
# In a group treated with oxaliplatin alone (hereinafter, the oxaliplatin alone treated group), the amount of intracellular actin filaments increased by 5% compared to that in a group not treated with oxaliplatin. […] A decreasing rate of intracellular actin filaments, caused by each compound compared to the amount of intracellular actin filaments of the oxaliplatin alone treated group was calculated. […]
# [2] = test system: sciatic nerve of a rat spinal nerve ligation model; assay: Actin filament/actin monomer ratio in the sciatic nerve of rat spinal nerve ligation model; format: in vivo
# From the text: The effect of the cyclic amine derivative (I) or a pharmacologically acceptable salt thereof on a ratio between the amount of actin filaments and the amount of actin monomers in the sciatic nerve of a rat spinal nerve ligation model was examined.
# Male SD rats (manufactured by Charles River Laboratories Japan, Inc.) of 6 weeks old were used. Each rat spinal nerve ligation model was produced by resecting the spine vertebral arch by incision of the right lower back under isoflurane inhalation anesthesia, completely ligating L5 and L6 nerve roots of the spinal nerve, and then suturing the muscular layer and the skin. As a negative control (sham-operation group), the right L5 and L6 nerves were exposed, and then the muscular layer and the skin were sutured similarly without ligation. One week after the nerve ligation, the rats were used to perform the following experiment. […]
# For quantitative determination of actin filaments and actin monomers, G-actin/F-actin in vivo assay kit (manufactured by Cytoskeleton Inc.) was used. […] The amount of actin in each of the actin monomer sample and the actin filament sample was measured by Western blotting. […] Luminescence intensity of a band corresponding to actin was quantitatively determined using Image Lab software (manufactured by Bio-Rad). […]
structure (smiles),measurement,setting,value
"CN(C)C1CCN(C(=O)C[C@H](O)c2nccn2C)CC1 [Example 7, (S)-1-(4-(dimethylamino)piperidin-1-yl)-3-hydroxy-3-(1-methyl-1H-imidazol-2-yl)propan-1-one]",inhibition at 10 µM,[1],≥ 5%
same,actin filament/actin monomer ratio compared to the distilled water administration group,"[2]; oral 60 mg/kg once a day for 2 days, sciatic nerve, p<0.025 Williams",significantly reduced
same,actin filament/actin monomer ratio,"[2]; oral 6, 20 and 60 mg/kg once a day for 2 days, sciatic nerve 3 hours after last administration, FIG. 3b",reduced as the dose of the compound of Example 7 was increased
